Measurements: PMC2603307 (Chemistry & biology, 2008)

Target: T1, E. coli GCH I (FolE, B2153) (Escherichia coli, UniProt P0A6T5)
T1 sequence (P0A6T5 2-222): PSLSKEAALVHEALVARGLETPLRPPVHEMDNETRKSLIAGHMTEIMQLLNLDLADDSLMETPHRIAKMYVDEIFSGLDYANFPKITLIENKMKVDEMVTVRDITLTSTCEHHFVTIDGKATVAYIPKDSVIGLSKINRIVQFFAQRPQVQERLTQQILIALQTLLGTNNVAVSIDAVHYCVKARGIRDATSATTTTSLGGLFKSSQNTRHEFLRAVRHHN
Assay: LC-MS of product
Type: biochemical
Details: 20 mM Tris-SO4 pH 8.0, 2 mM dithiothreitol, 0.1 M KCl, 100 uM GTP, 120 min, ambient temperature

## Nc1nc2c(ncn2[C@@H]2O[C@H](COP(=O)(O)OP(=O)(O)OP(=O)(O)O)[C@@H](O)[C@H]2O)c(=O)[nH]1 [GTP]
  LC-MS of product: product produced by ToyD with that produced with E. coli GCH I (FolE, B2153)
